Measured values published in ChEMBL document CHEMBL1201862, “PubChem BioAssay data set” (2004).
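Cultured in 96-well plates, cells were exposed to test compound for 48 hours across five concentrations. GI50: concentration for 50% inhibition of growth.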 Calls of active or inactive are those of the source. Rule as the data show it: active = GI50 up to about 1.1 µM and inactive = higher.

Columns and labels:
Assay in all cases: DTP human tumour cell line panel, 48 h
786-0 = test system: 786-0
A549 = test system: A549
ACHN = test system: ACHN
CAKI-1 = test system: CAKI-1
HT-29 = test system: HT-29
IGROV-1 = test system: IGROV-1
KM12 = test system: KM12
MOLT-4 = test system: MOLT-4
NCI-H460 = test system: NCI-H460
OVCAR-8 = test system: OVCAR-8
SF-295 = test system: SF-295
SF-539 = test system: SF-539
SK-MEL-28 = test system: SK-MEL-28
SK-OV-3 = test system: SK-OV-3
UACC-257 = test system: UACC-257
SR = test system: SR

Row | Compound | GI50 (786-0) | GI50 (A549) | GI50 (ACHN) | GI50 (CAKI-1) | GI50 (HT-29) | GI50 (IGROV-1) | GI50 (KM12) | GI50 (MOLT-4) | GI50 (NCI-H460) | GI50 (OVCAR-8) | GI50 (SF-295) | GI50 (SF-539) | GI50 (SK-MEL-28) | GI50 (SK-OV-3) | GI50 (UACC-257) | GI50 (SR)
1 | NC1CCCCC1.O=P(O)(O)C1(P(=O)(O)O)CC1 | > 100 µM (inactive) | > 100 µM (inactive) | > 100 µM (inactive) | > 100 µM (inactive) | > 100 µM (inactive) | > 100 µM (inactive) | > 100 µM (inactive) | > 100 µM (inactive) | > 100 µM (inactive) | > 100 µM (inactive) | > 100 µM (inactive) | > 100 µM (inactive) | > 100 µM (inactive) | > 100 µM (inactive) | > 100 µM (inactive) | 
2 | O=C(O)/C=C/c1nc2ccccc2c(=O)o1 | > 100 µM (inactive) | > 100 µM (inactive) | > 100 µM (inactive) |  | > 100 µM (inactive) | > 100 µM (inactive) | > 100 µM (inactive) | > 100 µM (inactive) |  | > 100 µM (inactive) | > 100 µM (inactive) | > 100 µM (inactive) | > 100 µM (inactive) | > 100 µM (inactive) |  | 
3 | c1ccc(C2=NOC3C4CCC(C4)C23)cc1 (stereo not drawn) | > 100 µM (inactive) | > 100 µM (inactive) | > 100 µM (inactive) | < 0.01 µM (active) | > 100 µM (inactive) | > 100 µM (inactive) | > 100 µM (inactive) | > 100 µM (inactive) | > 100 µM (inactive) | > 100 µM (inactive) | > 100 µM (inactive) | > 100 µM (inactive) | > 100 µM (inactive) | > 100 µM (inactive) | > 100 µM (inactive) | > 100 µM (inactive)
4 | COc1cc(/C=C/c2csnn2)cc(OC)c1OC | > 100 µM (inactive) | > 100 µM (inactive) | 78.3 µM (inactive) | > 100 µM (inactive) | > 100 µM (inactive) | > 100 µM (inactive) | > 100 µM (inactive) | > 100 µM (inactive) | > 100 µM (inactive) | > 100 µM (inactive) | > 100 µM (inactive) | > 100 µM (inactive) | > 100 µM (inactive) | > 100 µM (inactive) | > 100 µM (inactive) | > 100 µM (inactive)
5 | C/C=C1/C(=O)O[C@]23C=C[C@@H]4C(C(=O)OC)=CO[C@H](O[C@@H]12)[C@@H]43 [PLUMERICIN] |  | 3.47 µM (inactive) |  | 1.14 µM (inactive) | 2.18 µM (inactive) | 1.19 µM (inactive) | 2.28 µM (inactive) | 0.459 µM (active) | 2.08 µM (inactive) | 0.594 µM (active) | 2.46 µM (inactive) | 2.34 µM (inactive) | 1 µM (active) | 3.93 µM (inactive) | 0.592 µM (active) | 
6 | O=C(CC1(O)C(=O)Nc2ccccc21)c1ccc(O)cc1O (stereo not drawn) | > 100 µM (inactive) | > 100 µM (inactive) | > 100 µM (inactive) | > 100 µM (inactive) | > 100 µM (inactive) | > 100 µM (inactive) |  | > 100 µM (inactive) | > 100 µM (inactive) | > 100 µM (inactive) | > 100 µM (inactive) | > 100 µM (inactive) | > 100 µM (inactive) | > 100 µM (inactive) | > 100 µM (inactive) | 
7 | Cc1c2cc[n+](COC(=O)c3ccccc3)cc2c(C)c2c1[nH]c1ccccc12 | 0.778 µM (active) | 0.299 µM (active) | 0.532 µM (active) | 1.4 µM (inactive) | 0.453 µM (active) | 0.299 µM (active) | 0.533 µM (active) | 0.255 µM (active) |  | 0.551 µM (active) | 0.491 µM (active) | 0.416 µM (active) | 1.64 µM (inactive) | 1.39 µM (inactive) | 1.52 µM (inactive) | 0.212 µM (active)
8 | CCOC(=O)CN1C(=O)c2cccc3cc([N+](=O)[O-])cc(c23)C1=O | 13.4 µM (inactive) | 13.1 µM (inactive) | 10.1 µM (inactive) |  | 12.1 µM (inactive) | 3.97 µM (inactive) | 2.52 µM (inactive) | 0.373 µM (active) | 4.89 µM (inactive) | 1.78 µM (inactive) |  | 3.57 µM (inactive) | 2.85 µM (inactive) | 26.2 µM (inactive) | 2.51 µM (inactive) | 0.0525 µM (active)
9 | CCN(CC)C(=O)Cc1[nH][nH]c(=O)c1C(=O)N(CC)CC | > 100 µM (inactive) | > 100 µM (inactive) | > 100 µM (inactive) |  | > 100 µM (inactive) | > 100 µM (inactive) | > 100 µM (inactive) | > 100 µM (inactive) | > 100 µM (inactive) | > 100 µM (inactive) | > 100 µM (inactive) | > 100 µM (inactive) | > 100 µM (inactive) | > 100 µM (inactive) | > 100 µM (inactive) | > 100 µM (inactive)
10 | O=Cc1ccccc1OCCOc1cc(OCCOc2ccccc2C=O)c(OCCOc2ccccc2C=O)cc1OCCOc1ccccc1C=O | 24.2 µM (inactive) | > 100 µM (inactive) | 47.3 µM (inactive) | > 70.6 µM (inactive) | > 100 µM (inactive) | > 62.8 µM (inactive) | > 100 µM (inactive) | > 45.1 µM (inactive) | > 67.9 µM (inactive) | 47.1 µM (inactive) |  | > 44.5 µM (inactive) | > 100 µM (inactive) | > 82.4 µM (inactive) | > 100 µM (inactive) | 39.8 µM (inactive)
11 | CCS[C@H]1NC(=O)C1[C@H](C)O[Si](C)(C)C(C)(C)C (stereo partly drawn) | > 100 µM (inactive) | 81.3 µM (inactive) | > 100 µM (inactive) | 74 µM (inactive) | > 100 µM (inactive) | > 100 µM (inactive) | > 100 µM (inactive) |  | > 100 µM (inactive) | > 100 µM (inactive) | > 100 µM (inactive) | > 100 µM (inactive) | > 100 µM (inactive) |  | 48 µM (inactive) | 
12 | CCOc1cccc2c1N[S@@](=O)S2 | > 100 µM (inactive) | > 100 µM (inactive) | > 100 µM (inactive) | > 100 µM (inactive) | > 100 µM (inactive) | > 100 µM (inactive) | > 100 µM (inactive) | 55.3 µM (inactive) |  |  | 80.4 µM (inactive) | > 100 µM (inactive) | > 100 µM (inactive) | > 100 µM (inactive) | > 100 µM (inactive) | 74.8 µM (inactive)
13 | CN(C)CCNC(=O)c1cc([N+](=O)[O-])cc2ccc(-c3ccccc3)nc12 | 16.4 µM (inactive) | 7.64 µM (inactive) | 10.5 µM (inactive) | 10 µM (inactive) | 3.85 µM (inactive) | 6.92 µM (inactive) | 7.94 µM (inactive) |  | 3.8 µM (inactive) | 8.11 µM (inactive) | 8.79 µM (inactive) | 7.66 µM (inactive) | 9.33 µM (inactive) | 9.02 µM (inactive) | 5.75 µM (inactive) | 
14 | O=C(Nc1cccc(Cl)c1)C(=O)C(C(=O)c1ccc2ccccc2c1)C1OC(=O)c2ccccc21 (stereo not drawn) | 10.6 µM (inactive) | 30 µM (inactive) | 25.4 µM (inactive) | 18.5 µM (inactive) | 31.9 µM (inactive) | 22.4 µM (inactive) | 22.6 µM (inactive) | 3.99 µM (inactive) | 8.75 µM (inactive) | 13.9 µM (inactive) |  | 7.8 µM (inactive) | 9.62 µM (inactive) | 24.6 µM (inactive) | 17 µM (inactive) | 
15 | CC(=O)NC(CCCCN(Cc1ccccc1)C(=O)NCCCl)C(=O)NCc1ccccc1 (stereo not drawn) | > 100 µM (inactive) | > 100 µM (inactive) | > 100 µM (inactive) | > 100 µM (inactive) | > 100 µM (inactive) | > 100 µM (inactive) | > 100 µM (inactive) | > 100 µM (inactive) | > 100 µM (inactive) | > 100 µM (inactive) | > 100 µM (inactive) | > 100 µM (inactive) | > 100 µM (inactive) |  | > 100 µM (inactive) | > 100 µM (inactive)
16 | Nc1ncnc2c1ncn2C1CC(OC2CCCCO2)C(CO)O1 (stereo not drawn) | > 100 µM (inactive) | > 100 µM (inactive) | > 100 µM (inactive) |  | > 100 µM (inactive) | > 100 µM (inactive) | > 100 µM (inactive) | 61.8 µM (inactive) | > 100 µM (inactive) | > 100 µM (inactive) | > 100 µM (inactive) | > 100 µM (inactive) | > 100 µM (inactive) | > 100 µM (inactive) | > 100 µM (inactive) | > 100 µM (inactive)
17 | COC(=O)CC1N/C(=N\C#N)N(CCc2c[nH]c3ccccc23)C1=O (stereo not drawn) | > 100 µM (inactive) | > 100 µM (inactive) | > 100 µM (inactive) |  | > 100 µM (inactive) | > 100 µM (inactive) | > 100 µM (inactive) | > 100 µM (inactive) | > 100 µM (inactive) | > 100 µM (inactive) | > 100 µM (inactive) | > 100 µM (inactive) | > 100 µM (inactive) | > 100 µM (inactive) | > 100 µM (inactive) | 94.2 µM (inactive)
18 | N#CC(C(=O)CCC(=O)Nc1cccc(C(F)(F)F)c1)c1ccccc1 (stereo not drawn) | > 100 µM (inactive) | > 100 µM (inactive) | > 100 µM (inactive) | > 100 µM (inactive) | > 100 µM (inactive) | > 100 µM (inactive) | > 100 µM (inactive) | > 100 µM (inactive) | > 100 µM (inactive) | > 100 µM (inactive) | > 100 µM (inactive) | > 100 µM (inactive) | > 100 µM (inactive) |  | > 100 µM (inactive) | 
19 | CCO/C([O-])=C(/C=O)[n+]1c(C)n(C)c2ccccc21 | > 100 µM (inactive) | > 100 µM (inactive) |  | > 100 µM (inactive) | > 100 µM (inactive) | > 100 µM (inactive) | > 100 µM (inactive) | > 100 µM (inactive) | > 100 µM (inactive) | > 100 µM (inactive) | > 100 µM (inactive) | > 100 µM (inactive) | > 100 µM (inactive) | > 100 µM (inactive) | > 100 µM (inactive) | 
